Assay results published in ChEMBL document CHEMBL1123110, “Bicyclic and tricyclic analogues of anthramycin” (1985).

What was measured:
Format in all cases: functional
Mus musculus [1] = organism: Mus musculus; assay: Optimal dose required for activity against P388 lymphocytic leukemia.
Mus musculus [2] = assay: In vivo activity against P388 lymphocytic leukemia, and the maximum T/C values were reported. T/C >=125 is considered active
Mus musculus [3] = organism: Mus musculus; assay: Optimal dose required for activity against P388 lymphocytic leukemia

Structure (SMILES)	OD (Mus musculus [1])	Max T/C (Mus musculus [2])	OD (Mus musculus [3])
C/C=C1\C[C@H]2[C@@H](OC)Nc3cc(O)c(OC)cc3C(=O)N2C1	0.2 mg/kg	188	–
C/C=C/CN1CC=Nc2c(O)cccc2C1=O	20 mg/kg	138	–
O=C1c2ccccc2N=CC2CCCN12 (stereo unspecified)	8 mg/kg	133	–
COc1cc2c(cc1O)N[C@H](OC)[C@@H]1CC(O)CN1C2=O (stereo partly specified)	6.4 mg/kg	144	–
O=C1c2cccc(O)c2N=CCN1Cc1ccccc1	16 mg/kg	100	–
COC(=O)/C=C1/C[C@H]2[C@@H](S(=O)(=O)[O-])Nc3cc(O)c(OC)cc3C(=O)N2C1.[Na+]	6 mg/kg	131	–
CCOC(=O)CN1CC=Nc2c(O)cccc2C1=O	40 mg/kg	106	–
CN1CC=Nc2c(O)cccc2C1=O	16 mg/kg	122	–
O=C1NCC=Nc2c(O)cccc21	16 mg/kg	125	–
COc1cc2c(cc1O)N[C@@H](OC)[C@@H]1CC(O)CN1C2=O (stereo partly specified)	16 mg/kg	100	–
C=CCN1CC=Nc2c(O)cccc2C1=O	80 mg/kg	117	–
C#CCN1CC=Nc2c(O)cccc2C1=O	16 mg/kg	162	–
COc1cc2c(cc1OC(C)=O)N[C@H](OC)[C@@H]1CC(OC(C)=O)CN1C2=O (stereo partly specified)	–	100	16 mg/kg
